Results published in paper PMC10802587 (bioRxiv, 2024).
Entries after “also recorded” stand apart in the source; their conditions may differ. Where two headings read alike, the source gives them in different places.

Legend:
W2 ring stage cultures [1] = conditions: ref Yoo et al., 2020; cited from earlier work
[2] = test system: global palmitoylation in infected red blood cells; test: Global palmitoylation; assay type: cell-based, P. falciparum; conditions: after 16 hours 17-ODYA incubation
[3] = test system: SalA resistant Dd2-Polδ lines (PRELI domain-containing protein mutants); test: In vitro drug susceptibility assay, SalA selected PRELI mutant lines; assay type: cell-based, P. falciparum
recombinant PfMAGL = recombinant PfMAGL (Plasmodium falciparum, UniProt Q8IJ22); assay type: biochemical, P. falciparum
recombinant PfMAGL, sequence (Q8IJ22 1-359): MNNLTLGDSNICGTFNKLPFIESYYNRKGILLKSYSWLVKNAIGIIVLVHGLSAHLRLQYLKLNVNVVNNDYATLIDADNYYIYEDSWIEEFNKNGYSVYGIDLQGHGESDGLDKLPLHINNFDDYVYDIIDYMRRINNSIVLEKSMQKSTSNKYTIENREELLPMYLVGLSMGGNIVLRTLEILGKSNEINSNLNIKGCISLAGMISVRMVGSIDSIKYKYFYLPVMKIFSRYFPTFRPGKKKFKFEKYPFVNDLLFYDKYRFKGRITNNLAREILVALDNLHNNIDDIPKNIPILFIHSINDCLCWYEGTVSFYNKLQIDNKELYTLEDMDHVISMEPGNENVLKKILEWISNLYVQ

[4] = test system: abH112 cKD and control NF54 parasites; test: Susceptibility of abH112 cKD and NF54 parasites +/- aTC; assay type: cell-based, P. falciparum; conditions: presence and absence of aTC
W2 ring stage cultures [5] = test: Stage specific killing assay; assay type: cell-based, P. falciparum; conditions: 10 μM, ring stage W2 parasites, smears every twelve hours
[6] = test system: synchronized W2 ring stage parasites; test: Lipidomic analysis of treated parasites; assay type: cell-based, P. falciparum; conditions: 900 nM, 24 hours versus DMSO (Figure 5B)
[7] = test system: synchronized ring stage W2 parasites; test: 72-hour parasite growth; assay type: cell-based, P. falciparum; conditions: for EC50: Plasmodium falciparum
parasite food vacuole = test: Food vacuole visualization; assay type: cell-based, P. falciparum; conditions: 5 μM for 16 hrs; reduction not significant
[8] = test system: Human Foreskin Fibroblasts; test: Human cell cytotoxicity assay; assay type: cell-based; conditions: at concentrations up to 50 μM, 72 h, HFF
3D7 ring-stage parasites [9] = test: P. falciparum rate of kill assay; assay type: cell-based; conditions: compared with chloroquine, pyrimethamine, atovaquone
3D7 ring-stage parasites [10] = conditions: known fast, medium, slow acting inhibitors; ref Sanz et al., 2012; cited from earlier work
hMAGL = biological target: T1, hMAGL (Homo sapiens, UniProt Q99685); test: hMAGL inhibition assay; assay type: biochemical
T1 sequence (Q99685 1-303): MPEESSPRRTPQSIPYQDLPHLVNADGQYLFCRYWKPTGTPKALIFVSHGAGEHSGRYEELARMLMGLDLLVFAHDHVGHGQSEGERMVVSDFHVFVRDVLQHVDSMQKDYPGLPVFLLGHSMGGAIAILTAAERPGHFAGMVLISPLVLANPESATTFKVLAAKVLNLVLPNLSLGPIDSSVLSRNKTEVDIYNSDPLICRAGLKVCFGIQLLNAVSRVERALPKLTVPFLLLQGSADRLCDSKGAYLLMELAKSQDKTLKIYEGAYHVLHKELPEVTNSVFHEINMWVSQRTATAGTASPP

[11] = 72 h, read-out: EC50 parasite growth

Question: For `CCCCCCCCCCC[C@@H](C[C@@H]1OC(=O)[C@H]1CCCCCC)OC(=O)[C@H](CC(C)C)NC=O` [Orlistat], which “blood stage where progression is blocked” value (W2 ring stage cultures [1]) is on record?
Answer: block progression at the late schizont stage

Question: Which “changes in global palmitoylation” value [2] does the source give for `CCCCCCCCCCCCCCCP(=O)(OCC)Oc1cc(F)cc(F)c1` (stereo not drawn) [Compound 22] here?
Answer: did not observe any changes in global palmitoylation

Question: And the “increase in EC50, PRELI mutant parasites compared to Dd2-Polδ parental line” value [3]?
Answer: 7–10 fold

Question: And the “potency against recombinant PfMAGL (in words)” value (recombinant PfMAGL)?
Answer: picomolar inhibitors; also recorded: pM inhibitors

Question: What about the “effect of abH112 knockdown on parasite susceptibility to compound” value [4] of the same compound?
Answer: did not affect parasite susceptibility

Question: What about the “blood stage where growth was arrested” value (W2 ring stage cultures [5]) of the same compound?
Answer: arrested in growth at 24 hours

Question: And the “changes in lipid classes” value [6]?
Answer: downregulation of both ceramides and diacylglycerides

Question: What about the “rescue of killing phenotype by palmitate and oleate supplementation” value ([7]; 5 µM compound, 30 µM palmitate, oleate or both, 72 hours) of the same compound?
Answer: did not rescue

Question: And the “drop in potency, 1 hour pulse compared to continuous treatment” value ([7]; 1 hour treatment followed by washout)?
Answer: ten-fold drop in potency

Question: And the EC50 [7, 11]?
Answer: 188 nM

Question: And the EC50 ([7]; read-out: EC50 after 1 hour treatment and washout)?
Answer: 1330 nM

Question: What about the food vacuole size (parasite food vacuole) of the same compound?
Answer: small reduction in food vacuole size

Question: What about the “impact on mammalian cell viability” value [8] of the same compound?
Answer: no impact on mammalian cell viability

Question: What about the “rate of kill (in words)” value (3D7 ring-stage parasites [9]) of the same compound?
Answer: faster than pyrimethamine, but not as fast as chloroquine

Question: Which “changes in global palmitoylation” value [2] does the source give for `CCCCCCCCCCCCCCCP(=O)(OCC)Oc1c(F)cccc1F` (stereo not drawn) [Compound 21] here?
Answer: did not observe any changes in global palmitoylation

Question: What about the “potency against recombinant PfMAGL (in words)” value (recombinant PfMAGL) of the same compound?
Answer: picomolar inhibitors; also recorded: pM inhibitors

Question: And the “blood stage where growth was arrested” value (W2 ring stage cultures [5])?
Answer: progressed through the blood stage lifecycle

Question: What about the parasite killing ([7]; at concentrations up to 20 μM, 72 hours, W2) of the same compound?
Answer: no killing

Question: For `O=C1C(O)=C([C@H]2CC[C@H](c3ccc(Cl)cc3)CC2)C(=O)c2ccccc21` [atovaquone], which “rate of kill class of known inhibitors” value (3D7 ring-stage parasites [10]) is on record?
Answer: slow

Question: Which “changes in global palmitoylation” value [2] does the source give for `CCCCCCCCCCCCCCC(Br)C(=O)O` (stereo not drawn) [Compound 2-BP, 2-bromopalmitate, reference compound] here?
Answer: changes in patterns of palmitoylation

Question: Which “rate of kill class of known inhibitors” value (3D7 ring-stage parasites [10]) does the source give for `CCN(CC)CCCC(C)Nc1ccnc2cc(Cl)ccc12` (stereo not drawn) [chloroquine] here?
Answer: fast

Question: Which “rate of kill class of known inhibitors” value (3D7 ring-stage parasites [10]) does the source give for `CCc1nc(N)nc(N)c1-c1ccc(Cl)cc1` [pyrimethamine] here?
Answer: medium

Question: Which “potency against hMAGL (in words)” value (hMAGL) does the source give for `C#CCCCCP(=O)(OCC)Oc1ccc(S(=O)(=O)F)cc1` (stereo not drawn) [Compound 2] here?
Answer: highest potency

Question: What about the EC50 [7, 11] of the same compound?
Answer: 1600 nM
